Results reported in paper PMC9322761, “Design, Synthesis and Biological Characterization of Histone Deacetylase 8 (HDAC8) Proteolysis Targeting Chimeras (PROTACs) with Anti-Neuroblastoma Activity” (International Journal of Molecular Sciences, 2022).

Tests used:
[1] = system: SK-N-BE(2)-C cells; assay: Cell differentiation assay (neurite-like outgrowths, crystal violet); assay type: cell-based, human; conditions: combined with ATRA, 6–10 days
Text: As HDAC8 inhibition is known to induce signs of neuronal differentiation, such as neurite-like outgrowths in neuroblastoma cells), we treated SK-N-BE(2)-C cells with CRBN_1b, CRBN_1e, HyT_1m, and PCI-34051 for 6–10 days then stained the cells with crystal violet to visualize neurite-like outgrowths. For comparison, we treated the cells with the known neuronal differentiation inducer retinoic acid (ATRA) which is a known drug, that is applied for neuroblastoma treatment under some circumstances.
Adherent cells plated on 6-well plates were treated as indicated. For staining, cells were rinsed once with (PBS) and incubated with crystal violet staining solution (1% (w/v) in 70% EtOH) for 1 min. Subsequently, the staining solution was removed and cells were rinsed two to three times with autoclaved purified water and allowed to dry. All-trans retinoic acid (ATRA, Sigma-Aldrich, stock concentration 10 mM) was dissolved in ethanol (EtOH, Sigma-Aldrich, St. Louis, USA).
Figure 7 (A) SK-N-BE(2)-C cells, treated for 10 days. Scale bar: 500 µm. Stained with crystal violet. (B) SK-N-BE(2)-C cells, treated for 6 days. Stained with crystal violet.

[2] = Non-enzymatic stability in assay medium (HPLC); conditions: 37 °C, 10 µM, pH7.4
Protocol: Non-enzymatic stability of selected final compounds was determined using 10 µM concentration of the tested PROTACs in one of the following assay media; Dulbecco’s modified Eagle medium (DMEM) (50%)/dimethylsulfoxid (10%)/acetonitrile (40%) or DMEM (50%)/dimethylsulfoxid (10%)/methanol (40%) mixture at pH7.4. The formed solution mixtures were incubated for 0, 6, 12, and 24 h at 37 °C. Analyte decomposition was monitored by HPLC using XTerra RP18 column (3.5 mm, 3.9 mm × 100 mm) from the manufacturer Waters (Milford, MA, USA) and two LC-10AD pumps, a SPD-M10A VP PDA detector, and a SIL-HT autosampler, all from the manufacturer Shimadzu (Kyoto, Japan).

[3] = system: SK-N-BE(2)-C cells; assay: Colony formation assay in neuroblastoma cells; assay type: cell-based, human; conditions: 5 and 10 μM, treatment 96 h, then 6 days without treatment
Protocol: In order to measure the functional consequence of HDAC8 inhibition, two different cell lines were used: SK-N-BE(2)-C cells, which display MYCN amplification and non-functional p53; and IMR-32 cells having p53 wild type, which both respond with growth arrest and signs of neuronal differentiation upon knockdown or selective inhibition of HDAC8. Growth arrest was determined by colony formation and viability assays. Cells were treated with 5 and 10 μM of each of the CRBN_ based HDAC8 PROTACs having a triazole linker (CRBN_1d, CRBN_1e, CRBN_1f) for 96 h, followed by culturing for another 6 days without treatment (Figure 5A). This assesses whether the treatment impairs the clonogenic growth capacity of tumor cells, indicating effectiveness of compounds on the survival and proliferation of tumor cells.
In six-well plates, 500 cells were seeded and treated as indicated. Viable colonies were stained after a minimum of 10 days with crystal violet. For quantification, the mean intensity of each well of the 8-bit binary picture was measured with ImageJ software (U. S. National Institutes of Health, Bethesda, MD, USA; http://imagej.nih.gov/ij/ (accessed on 1 March 2022)).
Figure 5 (A) Neuroblastoma SK-N-BE(2)-C cells; Colony Assay, 10 days (compound treatment within first 96 h). Stained with crystal violet and quantified with ImageJ. (B,C) Trypan Blue assay for detection of dead cells. Neuroblastoma IMR-32 cells were either treated with 5 µM (B) or 10 µM (C). (D,E) Cell proliferation assessed via counting of viable cells. IMR-32 cells were either treated with 5 µM (D) or 10 µM (E) PROTACs. HDAC8i PCI-34501 served as a positive control, untreated (MEM) and solvent (DMSO) treated cells served as negative controls.

[4] = Cytotoxicity on HEK293 cells (Alamar Blue assay); conditions: human
Protocol: The cells were seeded out at 1.5 × 10^3 cells per well in a 96-well cell culture plate (TPP, Techno Plastic Products AG, Trasadingen, Switzerland). […] After 24 h, Alamar Blue reagent (Invitrogen, Carlsbad, CA, USA) was added according to the manufacturer’s instructions and incubated again for 21 h before the samples were analyzed.

[5] = system: HDAC8; conditions: cited from earlier work

In the case of `COc1ccc(C(=O)NO)cc1NCc1ccc(OCc2cn(CCCCCC(=O)Nc3cccc4c3C(=O)N(C3CCC(=O)NC3=O)C4=O)nn2)cc1` (stereo not drawn) [CRBN_1e], the “Differentiation phenotype (neurite-like outgrowths)” value [1] is reported as “substantially enhanced the differentiation phenotype”, the “Non-enzymatic stability, compound remaining” value ([2]; 6 h) is reported as 91.6% and the “Non-enzymatic stability, compound remaining” value ([2]; 24 h) is reported as 65.5%. The “Effect on colony formation” value [3] was “strongest effect on colony formation”.

In the case of `COc1cccc2c1C(=O)c1c(O)c3c(c(O)c1C2=O)C[C@@](O)(C(C)=O)C[C@@H]3O[C@H]1C[C@H](N)[C@H](O)[C@H](C)O1` [Daunorubicin], the IC50 at 48 h [4] is reported as 2.1 µM.

In the case of `N[C@H](Cc1cccc(Cl)c1)C(=O)N1CCN(C(=O)c2cc(F)ccc2F)CC1` [II], the IC50 [5] is listed as 0.2 µM.
